In general, IC50 refers to the concentration that inhibits the measured activity by half. High values mean weaker potency, low ones greater potency.

The structures appear in SMILES notation. Some results are limits rather than exact numbers.

One assay concerns the target T1, TRAF6/Uev1A/Ubc13 (Homo sapiens, UniProt Q9Y4K3).
T1 sequence (Q9Y4K3 1-522): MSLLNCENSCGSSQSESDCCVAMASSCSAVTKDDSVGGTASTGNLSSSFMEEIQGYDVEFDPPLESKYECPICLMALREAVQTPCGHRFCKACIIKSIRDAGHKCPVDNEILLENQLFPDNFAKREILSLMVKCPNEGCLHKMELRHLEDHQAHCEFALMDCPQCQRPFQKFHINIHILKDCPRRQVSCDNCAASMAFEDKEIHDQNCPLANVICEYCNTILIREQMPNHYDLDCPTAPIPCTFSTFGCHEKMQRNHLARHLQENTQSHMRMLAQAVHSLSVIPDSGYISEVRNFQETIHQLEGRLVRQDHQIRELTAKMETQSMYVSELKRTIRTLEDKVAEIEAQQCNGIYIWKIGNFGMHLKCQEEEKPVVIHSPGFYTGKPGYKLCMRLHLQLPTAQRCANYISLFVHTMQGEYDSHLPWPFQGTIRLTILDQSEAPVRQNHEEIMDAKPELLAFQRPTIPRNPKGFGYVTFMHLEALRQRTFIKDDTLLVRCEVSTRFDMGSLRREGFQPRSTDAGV
Description: TRAF6/Uev1A/Ubc13 plate-based ubiquitin ligase assay. It counts as biochemical. A digest of the protocol: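 Ligase activity was read as luminescence from anti-Flag/HRP detection of Flag-ubiquitin bound to casein-blocked Ni-plates alongside His-ubiquitin after a 1 h room-temperature reaction. Buffer: 62.5 mM Tris pH 7.5, 6.25 mM MgCl2, 1.0 mM DTT, 2 μM ATP; E1, Uev1a/Ubc13 and TRAF6 added last to start. IC50s derived across compound concentrations.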

Assay [1] relates to ICAM-1 expression in A549 cells. The experiment in a line: ICAM assay (IL-1 induced ICAM-1/CD54 expression in A549 cells). The assay is classed as cell-based, human. The following applies: Homo sapiens, A549, ICAM assay. In a few lines: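 Luminescent immunostaining (anti-CD54, then anti-mouse IgG, 1 h) quantifies ICAM-1 on A549 cells induced 4 h at 37° C by IL-1 (4 μl of 25 ng/ml added). Compound is added 1 h before the cytokine to cells plated overnight at 10,000 per well.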

The next assay deals with APC11/APC2 (Homo sapiens, UniProt Q9NYG5+Q9UJX6). The experiment in a line: APC-11/APC-2 ligase assay (APC auto ubiquitination). The assay is classed as biochemical. The following applies: APC assay. A digest of the protocol: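 His-tagged APC was captured on nickel plates with human E1 (5 ng/well), UbcH5c (20 ng/well), APC (100 ng/well) and Flag-ubiquitin (100 ng/well) in a Tris pH 7.6 reaction buffer containing 2.5 mM ATP, for 1 hour at room temperature. Read-out was anti-Flag/HRP chemiluminescence. IC50 was set against a DMSO control, typically from 6 or 8 concentrations.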
Sequence of APC11/APC2 (Q9NYG5 whole entry): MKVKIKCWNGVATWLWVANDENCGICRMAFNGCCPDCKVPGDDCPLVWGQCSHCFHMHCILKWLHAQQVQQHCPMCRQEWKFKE
Sequence of APC11/APC2 (Q9UJX6 whole entry): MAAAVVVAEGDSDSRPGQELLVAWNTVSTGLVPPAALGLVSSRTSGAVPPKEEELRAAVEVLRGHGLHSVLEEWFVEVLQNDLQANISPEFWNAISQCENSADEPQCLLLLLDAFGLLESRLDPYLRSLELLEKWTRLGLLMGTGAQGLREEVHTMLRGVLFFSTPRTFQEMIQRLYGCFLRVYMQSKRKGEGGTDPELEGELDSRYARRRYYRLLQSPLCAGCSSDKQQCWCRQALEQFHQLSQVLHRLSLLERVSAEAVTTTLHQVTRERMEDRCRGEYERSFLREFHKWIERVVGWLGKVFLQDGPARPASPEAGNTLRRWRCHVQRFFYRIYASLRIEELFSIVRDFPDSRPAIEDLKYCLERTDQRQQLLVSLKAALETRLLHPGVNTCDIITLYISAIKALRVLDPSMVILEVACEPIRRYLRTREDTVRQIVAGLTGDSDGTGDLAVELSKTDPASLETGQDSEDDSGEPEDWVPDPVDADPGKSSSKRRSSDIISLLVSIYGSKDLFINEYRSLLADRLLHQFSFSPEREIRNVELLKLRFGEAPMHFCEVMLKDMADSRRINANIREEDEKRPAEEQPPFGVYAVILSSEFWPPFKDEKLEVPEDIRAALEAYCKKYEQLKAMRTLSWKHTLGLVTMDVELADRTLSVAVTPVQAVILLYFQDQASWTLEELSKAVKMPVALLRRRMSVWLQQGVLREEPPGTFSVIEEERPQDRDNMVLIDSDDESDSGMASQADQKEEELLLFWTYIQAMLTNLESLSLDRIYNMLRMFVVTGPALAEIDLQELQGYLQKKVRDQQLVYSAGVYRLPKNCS

With `O=S(=O)(Nc1ccccc1OC(F)(F)F)c1ccc(Cl)c2nonc12` [compound 366, 7-chloro-N-(2-[trifluoromethoxy]phenyl)-2,1,3-benzoxadiazole-4-sulfonamide], the figures for the IC50 (against TRAF6/Uev1A/Ubc13; in assay [1]; on APC11/APC2) were not below 20 µM, 1 to 20 µM and not below 20 µM, respectively.

As for `O=S(=O)(NCc1ccncc1)c1ccc(Cl)c2nonc12` [compound 455, 7-chloro-N-(pyridin-4-ylmethyl)-2,1,3-benzoxadiazole-4-sulfonamide], the IC50 against TRAF6/Uev1A/Ubc13 is not below 20 µM; in assay [1], 1 to 20 µM; at APC11/APC2 it was not below 20 µM.

In the case of `O=S(=O)(Nc1ccc(OS(=O)(=O)c2ccc(Cl)c3nonc23)c2ccccc12)c1ccc(Cl)c2nonc12` [compound 394, 4-(7-chloro-2,1,3-benzoxadiazole-4-sulfonamido)naphthalen-1-yl 7-chloro-2,1,3-benzoxadiazole-4-sulfonate], the concentration for half-maximal inhibition (IC50) (at TRAF6/Uev1A/Ubc13; in assay [1]; against APC11/APC2) was 1 to 20 µM in each case.

As for `COc1ccccc1Sc1ccc(S(=O)(=O)Nc2cccc(F)c2F)c2nonc12` [compound 378, N-(2,3-difluorophenyl)-7-([2-methoxyphenyl]thio)-2,1,3-benzoxadiazole-4-sulfonamide], the IC50 against TRAF6/Uev1A/Ubc13 is not below 20 µM; in assay [1], not below 20 µM; against APC11/APC2 it was 1 to 20 µM.

As to `O=S(=O)(Nc1ccccc1F)c1ccc(Cl)c2nonc12` [compound 345, 7-chloro-N-(2-fluorophenyl)-2,1,3-benzoxadiazole-4-sulfonamide], the IC50 at TRAF6/Uev1A/Ubc13 is not below 20 µM; in assay [1], 1 to 20 µM; against APC11/APC2 it was not below 20 µM.

On to `O=S(=O)(Nc1ccccc1F)c1ccc(Nc2ccccc2F)c2nonc12` [compound 346, N-(2-fluorophenyl)-7-(2-fluorophenylamino)-2,1,3-benzoxadiazole-4-sulfonamide], for which the IC50 was not below 20 µM on TRAF6/Uev1A/Ubc13, not below 20 µM in assay [1] and 1 to 20 µM against APC11/APC2.

As to `COc1ccc(-c2ccc([N+](=O)[O-])c3nonc23)cc1` [compound 466, 4-(4-methoxyphenyl)-7-nitro-2,1,3-benzoxadiazole], the IC50 was 1 to 20 µM on TRAF6/Uev1A/Ubc13, 1 to 20 µM in assay [1] and not below 20 µM at APC11/APC2.

Turning to `COc1ccccc1-c1cc([N+](=O)[O-])cc2nonc12` [compound 482, 4-(2-methoxyphenyl)-6-nitro-2,1,3-benzoxadiazole], the IC50 (at TRAF6/Uev1A/Ubc13; in assay [1]; on APC11/APC2) was not below 20 µM in each case.

For `COc1ccccc1C(=O)Nc1ccc(Nc2cccc(F)c2F)c2nonc12` [compound 403, N-(7-[{2,3-difluorophenyl}amino]-2,1,3-benzoxadiazol-4-yl)-2-methoxybenzamide], the IC50 (on TRAF6/Uev1A/Ubc13; in assay [1]; on APC11/APC2) was not below 20 µM each time.

As to `FC(F)(F)c1cc(-c2ccc3c(c2)OCO3)c2nonc2c1` [compound 475, 4-(benzodioxol-5-yl)-6-(trifluoromethyl)-2,1,3-benzoxadiazole], the IC50 (against TRAF6/Uev1A/Ubc13; in assay [1]; against APC11/APC2) was not below 20 µM each time.

With `Cc1cccc(-c2cc(-c3cccc(C)c3)c3nonc3c2)c1` [compound 419, 4,6-bis(3-methylphenyl)-2,1,3-benzoxadiazole], the IC50 (at TRAF6/Uev1A/Ubc13; in assay [1]; against APC11/APC2) was not below 20 µM in each case.

For the compound `COc1ccc(C)cc1NS(=O)(=O)c1ccc(Cl)c2nonc12` [compound 381, 7-chloro-N-(2-methoxy-5-methylphenyl)-2,1,3-benzoxadiazole-4-sulfonamide], the concentration for half-maximal inhibition (IC50) at TRAF6/Uev1A/Ubc13 is not below 20 µM; in assay [1], 1 to 20 µM; against APC11/APC2 it was not below 20 µM.
